According to patent US20090106856A1, “Selection System for Wheat” (BASF PLANT SCIENCE GMBH, priority 2005, published 2009):

Tests used:
[1] = test system: wheat callus; test: Killing curve: callus growth and regeneration under constant selection pressure; assay type: cell-based, Triticum aestivum
Description: To define the sensitivity of wheat tissues during transformation when D-Serine and D-Alanine are present as selection agents regeneration experiments with immature embryos were designed. Immature embryos were immersed in PAWinf medium and subjected to all steps of callus induction, callus maintaining and regeneration in transformation protocol above.
Sensitivity of callus tissue under constant selection pressure were evaluated using range of concentrations: 0.5 mM, 1 mM, 3 mM, 5 mM, 10 mM, 25 mM, 50 mM. Experiments were performed in triplicates. Percentage of embryos forming embryos-genic callus was scored on PAW-4 regeneration medium. At the end of shoots elongation regeneration capacity of the calluses was scored as calluses regenerating shoots and number of shoots per callus.
Range of the tested concentrations 0.5-50 mM D-ser and D-ala are evaluated in replicating regeneration experiments. The effect of selective compounds is estimated during callus growth and shoots formation following transformation procedure on medium with D-serine and D-alanine (Table 4).

[2] = test system: wheat variety Canon immature embryos / embryogenic callus; test: Agrobacterium-mediated transformation with dsdA constructs and selection of transgenic plants; assay type: cell-based, Triticum aestivum
Description: Explants were washed with PAW-Inf. medium and immersed in the above-described bacterial suspension for 2 h at 26° C. At the end of infection the explants were placed with scutellum side up on PAW-1 medium. The residual bacterial suspension is removed by pipeting out and air-drying of the infected embryos by opening plates for 15 min on the sterile banch. Plates were sealed with Parafilm and placed in thermostat at 26° C. in the dark for 5-6 days co-cultivation.
After co-cultivation period the explants were washed with sterile water and 500 mg/L Cefotaxime and filter paper dried before being transferred to PAW-2 callus induction-recovery medium containing 160 mg/l Timentin for 14 days (7 days dark/7 days semi light; 13.2 μmol m^−2s^−1). Explants with embryogenic callus were subculture to PAW-2 callus-proliferation medium containing 160 mg/l Timentin and corresponding selection 5 mM D-serine or 5 mM D-alanine or 3 mg/l bialaphos. In some experiments the selection on D-amino acids was starting on PAW-2 callus induction medium 0, 7, 14 and 21 days after co cultivation. Embryogenic callus was subculture twice on fresh selective medium for callus maintaining and regeneration on PAW-4 medium with corresponding selection. Cultures were maintained at 23° C. on light 60.2 μmol m^−2s^−1. Regenerated shoots were subculture to PAW-5 hormone free medium with corresponding selection (5 mM D-serine or 5 mM D-alanine or 3 mg/l bialaphos) for further growth and rooting. All media used in the transformation experiments were filter sterilized and are listed in above. After analyses transgenic plants were transferred to soil and placed for further growth in greenhouse. 1.4 Molecular and expression studies of the transgenic plants
Freshly isolated immature embryos from Canon were inoculated with Agrobacterium. In all experiments Agrobacterium tumefacience LBA4404 (pSB1/pRLM167) (SEQ ID NO: 11) was used. The pRLM167 is a super binary vector containing p-ZmUBI+I::c-dsdA::t-OCS and p-ZmUBI+I::c-PAT::t-OCS selectable marker genes in expression cassettes (FIG. 1). Following co cultivation the explants were given a chance to recover for 14 days on callus induction selection free medium containing 160 mg/l Timentin to inhibit bacterial growth. Under these conditions 59% to 76% of the embryogenic callus developed over the all surface of immature embryos. Embryogenic callus was split in two and transferred to two the corresponding selection medium containing 5-mM D-serine or 3 mg/l bialaphos. During subsequent growth of callus, regeneration of plantlets, shoots elongation and roots formation the respective selection pressure was maintained in each of the corresponding medium. After 7 weeks of selection 38%-47% of the embryogenic calli regenerated with plants when selected on bialaphos or on D-serine respectively. Further selection of the regenerants was performed during the elongation and rooting of the regenerants for an additional 3 weeks. Intact in vitro transgenic shoots were selected within 10-12 weeks after co cultivation.
Freshly isolated immature embryos from Canon were inoculated with Agrobacterium. In all experiments Agrobacterium tumefacience super binary vector system based on LBA4404 (pSB1) was used. The constructs pRLM179, pRLM166, pRLM151 (FIG. 2. I, II and III) containing dsdA selectable marker gene alone or with a second gene (ahas or gusINT) were used for transformation. The explants were cultured on selection medium right away after co-cultivation with Agrobacterium or were cultivated on callus induction—recovery medium for 7, 14 and 21 days containing only 160 mg/l Timentin for inhibiting bacterial growth. Furthermore calli were sub cultured to fresh selection PAW-2 medium for proliferation. Embryogenic calli were transferred on PAW-4 selection medium for regeneration 5-6 weeks after transformation. The emerging plantlets were further grown and rooted on PAW-5 hormone free selection medium. […]

[3] = test system: wheat in vitro shoots; test: Killing curve: rooting of in vitro shoots; assay type: in vivo, Triticum aestivum
Excerpt: […] The effect of selection agents was observed two and tree weeks later. Number of plantlets with growing roots and green leaves were scored.
In vitro regenerated shoots from media lacking the selection compounds were collected and transferred on medium for rooting (½ MS salts hormone free). Roots formation, growth of the shoots and leaves elongation was scored two and four weeks later after sub culturing of these shoots to the medium supplemented with D-amino acids (Table 5).

[4] = construct pRLM167 (dsdA/pat), selection on 5 mM D-serine or 3 mg/l bialaphos
[5] = pRLM179 (dsdA/AHAS), 3 mM, selection started 21 days after co-cultivation
[6] = pRLM179 (dsdA/AHAS), 5 mM, selection started 21 days after co-cultivation
[7] = pRLM179 (dsdA/AHAS), 10 mM, selection started 21 days after co-cultivation

N[C@H](CO)C(=O)O [D-serine]
regeneration capacity of the calli measured as number of regenerants per callus line ([1]; 0.5 mM): clear increase
number of calli regenerating plants reduced ([1]; 3 mM): 50%
Regeneration capacity of the calli reduced ([1]; 5 mM): 70%
Regenerated Embryogenic Lines (%) ([1]; Bobwhite, 0.5 mM): 83%
Regenerated Embryogenic Lines (%) ([1]; Bobwhite, 3 mM): 57%
Regenerated Embryogenic Lines (%) ([1]; Bobwhite, 5 mM): 32.5%
Regenerated Embryogenic Lines (%) ([1]; Bobwhite, 10 mM): 10%
Regenerated Embryogenic Lines (%) ([1]; Bobwhite, 15 mM): 6%
Regenerated Embryogenic Lines (%) ([1]; Bobwhite, 25 mM): 0%
Regenerated Embryogenic Lines (%) ([1]; Bobwhite, 50 mM): 0%
Regenerated Embryogenic Lines (%) ([1]; Canon, 0.5 mM): 84%
Regenerated Embryogenic Lines (%) ([1]; Canon, 3 mM): 56%
Regenerated Embryogenic Lines (%) ([1]; Canon, 5 mM): 23%
Regenerated Embryogenic Lines (%) ([1]; Canon, 10 mM): 6%
Regenerated Embryogenic Lines (%) ([1]; Canon, 15 mM): 3%
Regenerated Embryogenic Lines (%) ([1]; Canon, 25 mM): 0%
Regenerated Embryogenic Lines (%) ([1]; Canon, 50 mM): 0%
lethal dose (LD 100) for regeneration response of callus ([1]; tested in both varieties): 25 mM
ER Escape Rate (% of non-transgenic regenerants out of all selected plants) [2, 4]: 17%
TE Transformation Efficiency (% of transgenic plants out of the explants) [2, 4]: 2.1%
Average transformation efficiencies for both constructs ([2]; dsdA constructs with ahas or gusINT, selection on D-serine): about 1%
TE (%) Transformation Efficiency ([2]; pRLM166, 5 mM, start of selection 21 days): 0.69%
ER (%) Escapes Rate [2, 5]: 100%
TE (%) Transformation Efficiency [2, 5]: 0%
ER (%) Escapes Rate [2, 6]: 25%
TE (%) Transformation Efficiency [2, 6]: 1.39%
ER (%) Escapes Rate [2, 7]: 0%
TE (%) Transformation Efficiency [2, 7]: 0.77%
root formation of non-transgenic shoots ([3]; 5 mM): not able to form roots
Rooted Shoots (%) ([3]; Bobwhite, 1 mM): 64%
Rooted Shoots (%) ([3]; Bobwhite, 3 mM): 24%
Rooted Shoots (%) ([3]; Bobwhite, 5 mM): 3%
Rooted Shoots (%) ([3]; Bobwhite, 10 mM): 0%
Rooted Shoots (%) ([3]; Bobwhite, 15 mM): 0%
Rooted Shoots (%) ([3]; Bobwhite, 25 mM): 0%
Rooted Shoots (%) ([3]; Canon, 1 mM): 56%
Rooted Shoots (%) ([3]; Canon, 3 mM): 16%
Rooted Shoots (%) ([3]; Canon, 5 mM): 2%
Rooted Shoots (%) ([3]; Canon, 10 mM): 0%
Rooted Shoots (%) ([3]; Canon, 15 mM): 0%
Rooted Shoots (%) ([3]; Canon, 25 mM): 0%
